Experimental data reported in ChEMBL document CHEMBL5696439 (Cancer Res, 2010).
Active and inactive are the calls of the source. No cut-off for these calls is given here.

Key:
[1] = biological target: Serine/threonine-protein kinase mTOR (Homo sapiens, UniProt P42345); experiment: Inhibition of human full-length Flag-tagged mTOR expressed in HEK293 cells using His6-S6K as substrate measured after 2 hrs in presence of ATP by DELFIA
[2] = biological target: Cyclin-dependent kinase 5/CDK5 activator 1 (Homo sapiens) (UniProt Q00535+Q15078); experiment: Inhibition of recombinant human full-length GST/His-tagged CDK5/p25 expressed in insect cells at 2 uM using Ser/Thr 12 as substrate measured after 1 hr by Z'-LYTE assay relative to control; details: Insect cell
[3] = biological target: Ephrin type-A receptor 3 (Homo sapiens) (UniProt P29320); experiment: Inhibition of recombinant human His-tagged EPHA3 (568-976 residues) expressed in baculovirus expression system at 2 uM measured after 1 hr by Z'-LYTE assay relative to control
[4] = biological target: Tyrosine-protein kinase Fes/Fps (Homo sapiens) (UniProt P07332); experiment: Inhibition of recombinant human full-length His-tagged FES expressed in baculovirus expression system at 2 uM using Tyr 01 as substrate measured after 1 hr by Z'-LYTE assay relative to control
[5] = biological target: Mitogen-activated protein kinase kinase kinase kinase 4 (Homo sapiens) (UniProt O95819); experiment: Inhibition of recombinant human GST-tagged MAP4K4 (1-328 residues) expressed in insect cells at 2 uM using Ser/Thr 07 as substrate measured after 1 hr by Z'-LYTE assay relative to control; details: Insect cell
[6] = biological target: Mitogen-activated protein kinase 11 (Homo sapiens) (UniProt Q15759); experiment: Inhibition of recombinant human full length His-tagged MAPK11 expressed in insect cells at 2 uM using Ser/Thr 15 as substrate measured after 1 hr by Z'-LYTE assay relative to control; details: Insect cell
[7] = biological target: Muscle, skeletal receptor tyrosine-protein kinase (Homo sapiens) (UniProt O15146); experiment: Inhibition of recombinant human GST-tagged MUSK (519-869 residues) expressed in insect cells at 2 uM using Tyr 04 as substrate measured after 1 hr by Z'-LYTE assay relative to control; details: Insect cell
[8] = system: Platelet-derived growth factor receptor alpha (Homo sapiens), P16234 [T674I]; experiment: Inhibition of recombinant human GST-tagged PDGFRA T674I mutant (550-1089 residues) expressed in baculovirus expression system at 2 uM using Tyr 04 as substrate measured after 1 hr by Z'-LYTE assay relative to control
[9] = system: PC3MM2; experiment: Antiproliferative activity against human PC3MM2 cells assessed as cell growth inhibition incubated for 24 hrs by MTS assay; assay type: functional, cell-based; details: PC3MM2, 24 h
[10] = system: MDA-MB-361; experiment: Induction of apoptosis in human MDA-MB-361 cells assessed as change in AKT phosphorylation at T308 level at 0.05 to 5 micromol/L incubated for 48 hrs by Western blot analysis; assay type: functional, cell-based; details: dose 0.05-5 µmol/L
[11] = system: HT-29; experiment: Antitumor activity against human HT-29 cells xenografted in female nude mouse model assessed as suppression in P-S6K at T389 level at 50 mg/kg, iv administered once a week and measured at least 8 hrs by immunoblot analysis; assay type: functional, organism-based
[12] = system: HCT-116; experiment: Antitumor activity against human HCT-116 cells xenografted in female nude mouse model assessed as suppression in P-AKT at S473 level at 50 mg/kg, iv administered once a week and measured at least 8 hrs by immunoblot analysis; assay type: functional, organism-based
[13] = system: MDA-MB-361; experiment: Antitumor activity against human MDA-MB-361 cells xenografted in female nude mouse model assessed as tumor growth delay at 5 mg/kg, po qd administered as 5 days on/2 days off regimen for 4 cycles; assay type: functional, organism-based; details: time 28.0 day

Mitogen-activated protein kinase kinase kinase kinase 4 (Homo sapiens), sequence (O95819 2-1239 limits assumed): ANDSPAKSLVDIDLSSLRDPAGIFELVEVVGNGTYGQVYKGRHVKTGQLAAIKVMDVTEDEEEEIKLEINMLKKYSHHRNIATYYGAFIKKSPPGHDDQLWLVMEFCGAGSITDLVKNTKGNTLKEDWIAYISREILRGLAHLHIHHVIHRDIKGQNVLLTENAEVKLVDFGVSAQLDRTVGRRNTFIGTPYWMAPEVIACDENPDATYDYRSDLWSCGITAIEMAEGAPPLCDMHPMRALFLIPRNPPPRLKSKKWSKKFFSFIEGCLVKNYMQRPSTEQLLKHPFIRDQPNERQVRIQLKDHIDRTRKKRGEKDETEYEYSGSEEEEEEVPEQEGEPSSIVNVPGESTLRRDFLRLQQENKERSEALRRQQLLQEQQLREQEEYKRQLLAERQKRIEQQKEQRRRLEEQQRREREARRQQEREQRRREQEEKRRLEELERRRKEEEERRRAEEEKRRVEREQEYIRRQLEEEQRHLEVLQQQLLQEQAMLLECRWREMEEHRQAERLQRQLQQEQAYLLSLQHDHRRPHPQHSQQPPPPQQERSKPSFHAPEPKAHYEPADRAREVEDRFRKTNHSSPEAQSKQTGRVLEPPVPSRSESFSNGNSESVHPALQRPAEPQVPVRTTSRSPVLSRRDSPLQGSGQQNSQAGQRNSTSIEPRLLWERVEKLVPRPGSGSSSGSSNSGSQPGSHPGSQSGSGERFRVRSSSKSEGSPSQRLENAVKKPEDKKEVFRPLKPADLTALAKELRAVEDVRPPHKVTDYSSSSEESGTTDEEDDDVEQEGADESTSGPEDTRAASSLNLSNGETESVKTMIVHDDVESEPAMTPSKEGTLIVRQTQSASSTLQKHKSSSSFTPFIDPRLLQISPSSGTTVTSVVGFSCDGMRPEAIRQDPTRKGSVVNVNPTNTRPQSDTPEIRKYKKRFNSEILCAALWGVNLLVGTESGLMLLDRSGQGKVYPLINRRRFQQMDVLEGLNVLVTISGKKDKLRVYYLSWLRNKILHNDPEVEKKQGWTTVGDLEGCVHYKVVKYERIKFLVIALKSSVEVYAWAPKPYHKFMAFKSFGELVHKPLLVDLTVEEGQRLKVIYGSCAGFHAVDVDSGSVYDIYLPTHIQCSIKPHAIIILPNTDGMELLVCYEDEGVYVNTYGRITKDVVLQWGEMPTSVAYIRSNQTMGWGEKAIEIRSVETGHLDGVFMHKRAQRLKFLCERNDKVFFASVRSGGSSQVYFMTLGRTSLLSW
Tyrosine-protein kinase Fes/Fps (Homo sapiens), sequence (P07332 whole entry, the tested form may be a part): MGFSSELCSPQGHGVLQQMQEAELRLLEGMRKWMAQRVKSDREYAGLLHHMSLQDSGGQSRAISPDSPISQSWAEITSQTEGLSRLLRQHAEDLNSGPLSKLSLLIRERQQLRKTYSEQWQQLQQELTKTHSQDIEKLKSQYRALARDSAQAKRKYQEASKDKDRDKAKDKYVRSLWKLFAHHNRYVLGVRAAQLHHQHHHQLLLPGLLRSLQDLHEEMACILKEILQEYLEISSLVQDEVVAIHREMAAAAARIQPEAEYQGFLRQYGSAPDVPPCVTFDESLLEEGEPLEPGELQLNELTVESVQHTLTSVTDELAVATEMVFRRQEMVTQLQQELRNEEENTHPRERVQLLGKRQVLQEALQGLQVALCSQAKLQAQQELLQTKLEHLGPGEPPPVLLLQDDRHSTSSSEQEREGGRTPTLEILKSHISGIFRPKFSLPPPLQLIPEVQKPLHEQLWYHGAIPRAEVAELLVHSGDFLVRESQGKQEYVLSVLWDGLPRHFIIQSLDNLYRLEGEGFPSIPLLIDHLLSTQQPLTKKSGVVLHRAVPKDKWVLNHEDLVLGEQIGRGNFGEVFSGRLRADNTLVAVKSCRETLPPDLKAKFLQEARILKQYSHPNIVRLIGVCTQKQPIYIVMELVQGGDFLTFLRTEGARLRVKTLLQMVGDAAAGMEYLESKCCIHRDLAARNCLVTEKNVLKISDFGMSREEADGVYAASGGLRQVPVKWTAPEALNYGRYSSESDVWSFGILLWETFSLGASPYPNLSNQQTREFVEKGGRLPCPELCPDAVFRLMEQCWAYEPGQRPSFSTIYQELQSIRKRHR
Platelet-derived growth factor receptor alpha (Homo sapiens), P16234 [T674I], sequence (P16234 whole entry T674I, the tested form may be a part): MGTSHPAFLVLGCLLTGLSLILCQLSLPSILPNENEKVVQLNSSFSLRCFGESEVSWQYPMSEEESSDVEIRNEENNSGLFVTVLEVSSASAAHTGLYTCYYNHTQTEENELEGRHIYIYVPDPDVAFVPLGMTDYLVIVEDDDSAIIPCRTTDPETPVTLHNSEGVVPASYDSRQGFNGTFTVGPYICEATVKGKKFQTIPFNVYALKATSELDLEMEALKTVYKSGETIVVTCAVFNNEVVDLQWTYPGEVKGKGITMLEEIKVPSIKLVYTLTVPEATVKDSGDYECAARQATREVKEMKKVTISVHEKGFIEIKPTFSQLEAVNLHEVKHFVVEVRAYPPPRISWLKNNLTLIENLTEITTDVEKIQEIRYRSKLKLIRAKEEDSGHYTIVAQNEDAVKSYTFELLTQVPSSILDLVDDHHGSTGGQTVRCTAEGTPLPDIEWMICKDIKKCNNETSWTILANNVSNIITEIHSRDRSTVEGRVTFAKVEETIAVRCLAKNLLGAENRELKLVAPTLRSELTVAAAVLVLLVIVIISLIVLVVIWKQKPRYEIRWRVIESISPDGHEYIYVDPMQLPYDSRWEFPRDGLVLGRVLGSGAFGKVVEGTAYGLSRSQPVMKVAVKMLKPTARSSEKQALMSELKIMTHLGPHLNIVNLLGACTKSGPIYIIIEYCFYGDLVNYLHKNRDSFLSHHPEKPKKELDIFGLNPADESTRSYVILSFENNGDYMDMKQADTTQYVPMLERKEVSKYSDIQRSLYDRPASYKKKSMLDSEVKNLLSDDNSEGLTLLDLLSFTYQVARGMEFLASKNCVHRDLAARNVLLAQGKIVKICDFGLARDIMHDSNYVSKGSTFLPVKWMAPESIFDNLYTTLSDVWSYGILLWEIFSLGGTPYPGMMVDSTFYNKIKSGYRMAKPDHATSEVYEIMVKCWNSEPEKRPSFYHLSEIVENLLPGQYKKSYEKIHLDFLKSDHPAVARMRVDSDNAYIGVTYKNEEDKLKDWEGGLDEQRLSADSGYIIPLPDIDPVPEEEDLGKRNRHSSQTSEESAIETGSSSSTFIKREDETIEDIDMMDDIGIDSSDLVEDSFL
Cyclin-dependent kinase 5/CDK5 activator 1 (Homo sapiens), sequence (Q00535 whole entry, the tested form may be a part): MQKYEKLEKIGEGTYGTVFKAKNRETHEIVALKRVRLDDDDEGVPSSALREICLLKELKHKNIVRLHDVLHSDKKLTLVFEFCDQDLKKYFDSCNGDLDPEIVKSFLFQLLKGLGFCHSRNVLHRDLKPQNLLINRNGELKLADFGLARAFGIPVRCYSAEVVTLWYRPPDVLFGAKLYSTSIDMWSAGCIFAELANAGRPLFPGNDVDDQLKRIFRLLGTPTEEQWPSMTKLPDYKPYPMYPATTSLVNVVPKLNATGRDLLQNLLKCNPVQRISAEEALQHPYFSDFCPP
Cyclin-dependent kinase 5/CDK5 activator 1 (Homo sapiens), sequence (Q15078 99-307 partner limits assumed): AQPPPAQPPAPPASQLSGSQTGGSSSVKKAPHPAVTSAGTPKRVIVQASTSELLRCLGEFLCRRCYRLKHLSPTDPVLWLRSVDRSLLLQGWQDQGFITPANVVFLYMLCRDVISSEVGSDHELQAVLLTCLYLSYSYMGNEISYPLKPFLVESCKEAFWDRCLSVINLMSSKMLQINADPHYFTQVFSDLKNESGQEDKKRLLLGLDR
Ephrin type-A receptor 3 (Homo sapiens), sequence (P29320 whole entry, the tested form may be a part): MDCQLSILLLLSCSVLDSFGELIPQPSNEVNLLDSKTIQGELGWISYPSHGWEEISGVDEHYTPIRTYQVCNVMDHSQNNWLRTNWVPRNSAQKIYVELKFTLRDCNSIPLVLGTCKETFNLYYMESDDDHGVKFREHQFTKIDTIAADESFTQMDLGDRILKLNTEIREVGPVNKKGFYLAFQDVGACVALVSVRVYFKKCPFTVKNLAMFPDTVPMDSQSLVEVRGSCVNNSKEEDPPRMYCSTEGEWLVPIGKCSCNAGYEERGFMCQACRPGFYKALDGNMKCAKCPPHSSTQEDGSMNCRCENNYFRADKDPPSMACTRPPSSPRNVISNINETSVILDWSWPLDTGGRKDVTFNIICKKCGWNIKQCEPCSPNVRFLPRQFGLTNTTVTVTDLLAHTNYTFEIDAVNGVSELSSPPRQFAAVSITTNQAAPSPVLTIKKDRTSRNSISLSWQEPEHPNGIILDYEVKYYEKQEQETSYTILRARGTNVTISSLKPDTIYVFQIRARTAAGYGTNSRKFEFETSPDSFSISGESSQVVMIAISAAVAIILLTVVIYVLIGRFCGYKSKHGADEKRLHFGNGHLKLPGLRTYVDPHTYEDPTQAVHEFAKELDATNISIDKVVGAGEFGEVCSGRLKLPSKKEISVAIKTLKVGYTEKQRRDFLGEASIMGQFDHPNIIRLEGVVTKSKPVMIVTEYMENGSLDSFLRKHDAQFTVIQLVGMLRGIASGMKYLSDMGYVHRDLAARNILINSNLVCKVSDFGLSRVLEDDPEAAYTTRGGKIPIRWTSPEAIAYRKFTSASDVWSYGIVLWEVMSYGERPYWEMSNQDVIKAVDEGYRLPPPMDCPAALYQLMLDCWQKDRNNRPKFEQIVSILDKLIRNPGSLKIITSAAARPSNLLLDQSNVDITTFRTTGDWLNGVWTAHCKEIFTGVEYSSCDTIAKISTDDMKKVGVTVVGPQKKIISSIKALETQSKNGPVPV
Mitogen-activated protein kinase 11 (Homo sapiens), sequence (Q15759 whole entry, the tested form may be a part): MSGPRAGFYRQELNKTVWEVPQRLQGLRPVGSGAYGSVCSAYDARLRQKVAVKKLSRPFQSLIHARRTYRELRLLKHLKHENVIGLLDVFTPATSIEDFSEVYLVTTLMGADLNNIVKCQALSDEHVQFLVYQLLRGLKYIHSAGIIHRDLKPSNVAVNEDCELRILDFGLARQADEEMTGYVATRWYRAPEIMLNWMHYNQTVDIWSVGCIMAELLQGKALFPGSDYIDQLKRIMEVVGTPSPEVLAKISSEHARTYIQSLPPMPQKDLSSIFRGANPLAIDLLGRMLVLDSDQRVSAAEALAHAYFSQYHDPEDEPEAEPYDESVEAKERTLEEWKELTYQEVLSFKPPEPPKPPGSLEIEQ

CNC(=O)Nc1ccc(-c2nc(N3CC4CCC(C3)O4)c3cnn(C4CCC5(CC4)OCCO5)c3n2)cc1
IC50 [1]: 0.19 nM | inhibition [2]: 1% | inhibition [3]: 4% | inhibition [4]: -1% | inhibition [5]: 10% | inhibition [6]: 2% | inhibition [7]: 15% | inhibition [8]: 12% | IC50 [9]: 2 nM | Activity [10]: inactive | Activity [11]: Active | Activity [12]: Active | Activity [13]: Active
